Data on 26 compounds can be found in ChEMBL document CHEMBL5620351, “Advancing beyond reverse transcriptase inhibitors: The new era of hepatitis B polymerase inhibitors” (Eur J Med Chem, 2023).

Series [1] concerns Hepatitis B virus. The experiment in a line: Antiviral activity against HBV infected in human Hep38.7-TeT cells assessed as inhibition of extracellular HBV DNA by real-time qPCR analysis. The class given is functional, organism-based. (In general: Real-time PCR tracks product formation cycle by cycle.)
Series [2] relates to Hepatitis B virus. Description: Antiviral activity against HBV infected in human HepG2 2.2.15 cells assessed as reduction on HBsAg level incubated for 5 days. The class given is functional. The arrangement: concentration or dose not given beside the values. To be noted: time 5 day.
For series [3], the system named is HepG2. The experiment in a line: Cytotoxicity against human HepG2 cells assessed as reduction in cell viability by MTS assay. The class given is functional.
The test system of series [4] is HepG2. Description: Cytotoxicity against human HepG2 cells assessed as reduction in cell viability in presence of lamivudine by MTS assay. The class given is functional. In general terms: Tetrazolium dyes change colour on reduction, which living cells bring about.
In series [5] the test system is Hepatitis B virus. The experiment in a line: Antiviral activity against HBV infected in human HepDES19 cells assessed as reduction in HBV replication. The class given is functional, organism-based.
In series [6] the test system is Hepatitis B virus. The experiment in a line: Antiviral activity against HBV infected in human HepDES19 cells assessed as inhibition of HBV replication by qPCR analysis. The class given is functional, organism-based.
Series [7] in a line: Cytotoxicity against human HepDES19 cells assessed as reduction in cell viability incubated for 1 hr by MTS assay. The class given is functional.
The nature of series [8]: Cytotoxicity against human HEK293 cells assessed as reduction in cell viability incubated for 1 hr by MTS assay. The class given is toxicity, cell-based.
Series [9] relates to Hepatitis B virus. The experiment in a line: Antiviral activity against HBV infected in human HepDES19 cells assessed as inhibition of extracellular HBV DNA by qPCR analysis. The class given is functional, organism-based.
The next series relates to HepG2 2.2.15. The experiment in a line: Cytotoxicity against human HepG2 2.2.15 cells assessed as cell viability incubated for 12 days by WST-1 assay. The class given is functional. As to conditions: HepG2 2.2.15, 288 h, time 12 day.
For series [10], the system named is Hepatitis B virus. The experiment in a line: Antiviral activity against HBV infected in human HepG2 2.2.15 cells assessed as reduction in intracellular DNA level. The class given is functional, organism-based.
Series [11] concerns Hepatitis B virus. Description: Antiviral activity against HBV infected in human HepG2 2.2.15 cells assessed as reduction in extracellular DNA level. The class given is functional, organism-based.
A short description of series [12]: Cytotoxicity against human HepAD38 cells assessed as reduction in cell viability incubated for 4 days by XTT assay. The class given is functional. To be noted: HePAD38, 96 h, time 4 day.
The subject of series [13] is Hepatitis B virus. Description: Antiviral activity against HBV infected in human HePAD38 cells assessed as reduction in HBV replication by qPCR analysis. The class given is functional, organism-based.
The next series relates to Huh-7. The experiment in a line: Cytotoxicity against human Huh-7 cells assessed as reduction in cell viability by MTT assay. The class given is functional.
The test system of series [14] is Hepatitis B virus. Description: Antiviral activity against entecavir-resistant HBV infected in human Huh-7 cells assessed as reduction in HBV DNA production by real-time qPCR analysis. The class given is functional, organism-based.
In series [15] the test system is Hepatitis B virus. The experiment in a line: Antiviral activity against HBV D1 infected in human HepG2.2.15 cells assessed as reduction in HBV DNA production by real-time qPCR analysis. The class given is functional, organism-based. As to conditions: D1, HepG2.2.15.
For series [16], the system named is Hepatitis B virus. Description: Antiviral activity against adefovir-resistant HBV infected in human Huh-7 cells assessed as reduction in HBV DNA production by real-time qPCR analysis. The class given is functional, organism-based.
The test system of series [17] is Hepatitis B virus. Description: Antiviral activity against HBV C2 infected in human Huh-7 cells assessed as reduction in HBV DNA production by real-time qPCR analysis. The class given is functional, organism-based. As to conditions: C2, Huh-7.
The nature of series [18]: Cytotoxicity against human HepG2-hNTCP cells assessed as reduction in cell viability incubated for 3 days by celltiter glo assay. The class given is functional. As to conditions: 72 h, time 3 day. (In general: Cellular ATP, detected with luciferase, serves as a proxy for viable cell number.)
Series [19] in a line: Cytotoxicity against human HB611 cells assessed as reduction in cell viability incubated for 3 days by celltiter glo assay. The class given is functional. To be noted: HB611, 72 h, time 3 day.
The subject of series [20] is Hepatitis B virus. Description: Antiviral activity against HBV infected in human HepG2-hNTCP cells assessed as reduction in HBV DNA replication by qRT-PCR analysis. The class given is functional, organism-based.
The subject of series [21] is Hepatitis B virus. Description: Antiviral activity against HBV infected in human HepG2.2.15.7 cells assessed as reduction in HBV DNA replication by TR-PCR analysis. The class given is functional, organism-based.
In series [22] the test system is HepG2. Description: Cytotoxicity against human HepG2 cells assessed as cell viability incubated for 12 days by WST-1 assay. The class given is functional. To be noted: HepG2, 288 h, time 12 day.
The test system of series [23] is Hepatitis B virus. Description: Antiviral activity against HBV infected in human HepG2-NTCP12 cells assessed as inhibition of extracellular HBV DNA incubated for 2 weeks by SYBR green dye based quantitative PCR analysis. The class given is functional, organism-based. As to conditions: HepG2-NTCP12, 336 h.
Series [24] is described as follows: Cytotoxicity against human primary hepatocytes assessed as cell viability incubated for 72 hrs by LDH release assay. The class given is toxicity, cell-based, Hepatocyte.
Series [25] can be described thus: Cytotoxicity against human primary hepatocytes assessed as cell viability incubated for 72 hrs by MTS assay. The class given is toxicity, cell-based, Hepatocyte.

One may read the EC50 as the midpoint of the concentration-response curve. With `O=C(/C=C/c1ccc(O)c(O)c1)O[C@H](Cc1ccc(O)c(O)c1)C(=O)O` [ROSMARINIC ACID], the EC50 in the series on Hepatitis B virus [1] was found to be 30 µM. Consider `N#C/C=C1/C=C[C@@H](O)C[C@H]1O[C@@H]1O[C@H](CO)[C@@H](O)[C@H](O)[C@H]1O`, for which the Activity in the series with Hepatitis B virus [2] came to 62%.

As a reminder, the CC50 is the concentration giving 50% cytotoxicity. Regarding `CC(C)c1ccc(O)c(=O)c(O)c1` [BETA-THUJAPLICINOL], the 50% cytotoxic concentration (CC50) was found to be 47 µM in the series on HepG2 [3] and 48 µM in the series on HepG2 [4].

Turning to `COc1ccc(CON=C(C)c2c(C)cc(=O)n(O)c2O)cc1`, the EC50 with Hepatitis B virus [5] is 0.11 µM. Take `O=C(NCc1ccc(F)cc1)C1C(=O)N(O)C(=O)c2cc(Cl)ccc21` (centres undefined): the EC50 with Hepatitis B virus [6] stood at 0.69 µM. For the compound `C/C(=N\c1ccccc1N)c1c(C)cc(=O)n(O)c1O`, the results for the EC50 with Hepatitis B virus [5] and in the series on Hepatitis B virus [6] were 0.11 µM and 0.69 µM, respectively. For `CC(=NOc1ccccc1)c1c(C)cc(=O)n(O)c1O`, the EC50 in the series on Hepatitis B virus [5] is 0.11 µM.

For the compound `O=C(Nc1ccc(F)cc1)C1C(=O)N(O)C(=O)c2ccccc21` (centres undefined), the EC50 in the series on Hepatitis B virus [6] came out at 0.69 µM. As to `O=C1Cc2ccccc2C(=O)N1O`, the CC50 with HepG2 [3] and in the series with HepG2 [4] was greater than 100 µM throughout. In the series on Hepatitis B virus [6], the EC50 was 0.69 µM. With `CCNC(=O)C1C(=O)N(O)C(=O)c2ccc(OC)nc21` (centres undefined), the EC50 with Hepatitis B virus [5] was 2.4 µM. `COC(=O)c1c2c(cc(O)c(=O)c1O)COC2=O`: the CC50 in series [7] was greater than 77 µM. For the same compound, the CC50 at 1 h in series [8] was greater than 100 µM. For the same compound, the EC50 with Hepatitis B virus [9] was 0.5 µM. With `COC(=O)C1C(=O)N(O)C(=O)c2ccccc21` (centres undefined), the EC50 in the series on Hepatitis B virus [6] amounted to 0.69 µM.

Regarding `CC(=NOCc1ccccc1F)c1c(C)cc(=O)n(O)c1O`, in the series on Hepatitis B virus [5], the EC50 is 0.11 µM. For `C=CCNc1nc(N)c(/C(N)=N\C#N)s1`, the CC50 in the series with HepG2 2.2.15 came to 7.2 µM. The EC50 is 0.74 µM in the series with Hepatitis B virus [10] and 0.48 µM in the series with Hepatitis B virus [11]. With `O=C(Nc1ccccc1)C1C(=O)N(O)C(=O)c2ccccc21` (centres undefined), the EC50 with Hepatitis B virus [6] was 0.69 µM. The term IC50 denotes the concentration needed to halve the response being measured. In the case of `COc1ccc(-c2cccc(Nc3cc(=O)n(O)c(=O)[nH]3)c2)cc1`, in [12], the CC50 is greater than 100 µM. The IC50 in the series with Hepatitis B virus [13] came to 8 µM. As for `N#C[C@]1(CO)/C(=C\F)[C@@H](n2cnc3c(=O)[nH]c(N)nc32)C[C@@H]1O`, the CC50 with Huh-7 was 169 µM. Further, the IC50 in the series with Hepatitis B virus [14] is 77.5 µM; in the series on Hepatitis B virus [15], 1.8 µM; in the series on Hepatitis B virus [16] it was 14.1 µM; with Hepatitis B virus [17] it was 0.7 µM.

Consider `Cc1ccc(C(=O)Nc2ccc(S(=O)(=O)O)c3cc(S(=O)(=O)O)cc(S(=O)(=O)O)c23)cc1NC(=O)c1cccc(NC(=O)Nc2cccc(C(=O)Nc3cc(C(=O)Nc4ccc(S(=O)(=O)O)c5cc(S(=O)(=O)O)cc(S(=O)(=O)O)c45)ccc3C)c2)c1` [SURAMIN], for which the CC50 was 200 µM in series [18] and 168 µM in series [19]. The IC50 in the series on Hepatitis B virus [20] amounted to 0.27 µM. For `O=c1cc(Nc2cccc(-c3ccc(F)cc3)c2)[nH]c(=O)n1O`, the CC50 in series [12] was greater than 100 µM. In addition, the IC50 in the series with Hepatitis B virus [13] was 5.5 µM. For `O=C(NCc1ccc(F)cc1)C1C(=O)N(O)C(=O)c2ccc(O)nc21` (centres undefined), the EC50 in the series with Hepatitis B virus [5] was determined as 2.4 µM.

For the compound `Oc1cc(O)cc(/C=C/c2ccc(O)c(O)c2)c1` [PICEATANNOL], the EC50 in the series on Hepatitis B virus [21] was 96.2 µM. On to `NC(=O)C(Cc1ccc(O)c(O)c1)OC(=O)/C=C/c1ccc(O)c(O)c1` (centres undefined), for which the CC50 in the series on HepG2 [22] came to 229 µM. Consider `COC(=O)C1C(=O)N(O)C(=O)c2cc(NC(=O)c3ccccc3)ccc21` (centres undefined), for which, in the series on Hepatitis B virus [5], the EC50 came to 2.4 µM. As to `CCCCCCCCCCCC1=C(O)C(=O)C=C(O)C1=O` [EMBELIN], the Activity in the series on Hepatitis B virus [2] was found to be 62%.

As to `CC(=O)c1cc(O)c(=O)c(O)cc1C`, the EC50 with Hepatitis B virus [23] was determined as 0.049 µM. The CC50 at 72 h in series [24] and in [25] was greater than 100 µM throughout.

As for `COc1ccc2c(c1)C(=O)N(O)C(=O)C2C(=O)NCc1ccc(F)cc1` (centres undefined), the EC50 in the series with Hepatitis B virus [6] was 0.69 µM.
